# Columns and labels:
# [1] = tested on: inoculum (rumen cannula filtrate); assay: rumen in vitro model, growth promotant activity; conditions: for GLU (% Control): glucose; for Propionate % (% Control): propionate as percentage of total VFA; for VFA (% Control): total volatile fatty acids; for LYS (% Control): lysine
# [2] = tested on: inoculum (ileal or cecal cannula filtrate); assay: swine in vitro model, growth promotant activity; conditions: 5 hours, 37° C.; for GLU (% Control): glucose; for LAC (% Control): lactic acid; for LYS (% Control): lysine; for VFA (% Control): total volatile fatty acids
molecule,measurement,setting,value
CC[C@@]1([C@H]2O[C@H]([C@H]3O[C@@](O)(CO)[C@H](C)C[C@@H]3C)C[C@H]2C)CC[C@H]([C@@]2(C)CC[C@]3(C[C@H](O)[C@@H](C)[C@@H]([C@H](C)[C@H](OC)[C@@H](C)C(=O)O)O3)O2)O1 [Monensin Sodium],GLU (% Control),"[1]; experiment III, 0.5 ppm",11 % Control
same,Propionate % (% Control),"[1]; experiment III, 0.5 ppm",119 % Control
same,VFA (% Control),"[1]; experiment III, 0.5 ppm",94 % Control
same,GLU (% Control),"[1]; experiment III, 5.0 ppm",126 % Control
same,LYS (% Control),"[1]; experiment III, 5.0 ppm",141 % Control
same,Propionate % (% Control),"[1]; experiment III, 5.0 ppm",149 % Control
same,VFA (% Control),"[1]; experiment III, 5.0 ppm",104 % Control
same,GLU (% Control),"[1]; experiment III, 50.0 ppm",0 % Control
same,LYS (% Control),"[1]; experiment III, 50.0 ppm",147 % Control
same,Propionate % (% Control),"[1]; experiment III, 50.0 ppm",156 % Control
same,LYS (% Control),"[1]; experiment IV, 5.0 ppm",595 % Control
same,Propionate % (% Control),"[1]; experiment IV, 5.0 ppm",161 % Control
same,VFA (% Control),"[1]; experiment IV, 5.0 ppm",106 % Control
avoparcin,GLU (% Control),"[2]; experiment II, 1.67 ppm",115 % Control
same,LAC (% Control),"[2]; experiment II, 1.67 ppm",102 % Control
same,LYS (% Control),"[2]; experiment II, 1.67 ppm",101 % Control
Virginiamycin,GLU (% Control),"[2]; experiment I, 1.67 ppm",182 % Control
same,LAC (% Control),"[2]; experiment I, 1.67 ppm",70 % Control
same,LYS (% Control),"[2]; experiment I, 1.67 ppm",82 % Control
same,GLU (% Control),"[2]; experiment I, 16.67 ppm",191 % Control
same,LAC (% Control),"[2]; experiment I, 16.67 ppm",76 % Control
same,LYS (% Control),"[2]; experiment I, 16.67 ppm",127 % Control
same,GLU (% Control),"[2]; experiment I, 166.67 ppm",197 % Control
same,LAC (% Control),"[2]; experiment I, 166.67 ppm",81 % Control
same,LYS (% Control),"[2]; experiment I, 166.67 ppm",163 % Control
same,VFA (% Control),"[2]; experiment I, 166.67 ppm",93 % Control
same,GLU (% Control),"[2]; experiment II, 1.67 ppm",837 % Control
same,LAC (% Control),"[2]; experiment II, 1.67 ppm",21 % Control
same,LYS (% Control),"[2]; experiment II, 1.67 ppm",96 % Control
same,VFA (% Control),"[2]; experiment II, 1.67 ppm",240 % Control

# — patent US4521335A, “Aglycone and pseudo-aglycones of the AAD 216 antibiotics” (SmithKline Beckman Corporation, priority 1984, dated 1985)
